# Test results published in PubChem BioAssay AID1745844 (Carcinogenic Potency Database (CPDB), 2022).
# The source made the active and inactive calls. How the calls were made is not given here.
# System: rodent lifetime carcinogenesis bioassay, tumor incidence TD50
# Experiment: carcinogenic potency in animals, long-term in vivo studies, CPDB compilation (AID 1745844)
structure (smiles),measurement,setting,value
COc1ccc(C)cc1N,TD50,"mouse, strain B6C3F1, females, in feed, site: any site (literature study), lesion: several types, types named in the paper, dosed 97 weeks, study length 97 weeks",75 mg/kg/day
same,TD50,"mouse, strain B6C3F1, females, in feed, site: liver + urinary bladder, lesion: hepatocellular adenoma + hepatocellular carcinoma + carcinoma, NOS + neoplasm, NOS, malignant + squamous-cell carc, dosed 97 weeks, study length 97 weeks",69 mg/kg/day
same,TD50,"mouse, strain B6C3F1, females, in feed, site: liver, lesion: hepatocellular adenoma + hepatocellular carcinoma + neoplastic nodule, dosed 97 weeks, study length 97 weeks",301 mg/kg/day
same,TD50,"mouse, strain B6C3F1, females, in feed, site: liver, lesion: hepatocellular adenoma + hepatocellular carcinoma, dosed 97 weeks, study length 97 weeks",301 mg/kg/day
same,TD50,"mouse, strain B6C3F1, females, in feed, site: liver, lesion: hepatocellular carcinoma, dosed 97 weeks, study length 97 weeks",315 mg/kg/day
same,TD50,"mouse, strain B6C3F1, females, in feed, site: lung, lesion: alveolar/bronchiolar adenoma + alveolar/bronchiolar carcinoma, dosed 97 weeks, study length 97 weeks",3810 mg/kg/day
same,TD50,"mouse, strain B6C3F1, females, in feed, site: urinary bladder, lesion: carcinoma, NOS + neoplasm, NOS, malignant + squamous-cell carcinoma + transitional-cell carcinoma, dosed 97 weeks, study length 97 weeks",69 mg/kg/day
same,TD50,"mouse, strain B6C3F1, females, in feed, site: urinary bladder, lesion: carcinoma, NOS + squamous-cell carcinoma + transitional-cell carcinoma, dosed 97 weeks, study length 97 weeks",70.1 mg/kg/day
same,TD50,"mouse, strain B6C3F1, males, in feed, site: any site (literature study), lesion: several types, types named in the paper, dosed 97 weeks, study length 97 weeks",46.4 mg/kg/day
same,TD50,"mouse, strain B6C3F1, males, in feed, site: liver, lesion: hepatocellular adenoma + hepatocellular carcinoma + neoplastic nodule, dosed 97 weeks, study length 97 weeks",255 mg/kg/day
same,TD50,"mouse, strain B6C3F1, males, in feed, site: lung, lesion: alveolar/bronchiolar adenoma + alveolar/bronchiolar carcinoma, dosed 97 weeks, study length 97 weeks",1170 mg/kg/day
same,TD50,"mouse, strain B6C3F1, males, in feed, site: urinary bladder, lesion: squamous-cell carcinoma + transitional-cell carcinoma, dosed 97 weeks, study length 97 weeks",44.7 mg/kg/day
same,TD50,"rat, strain Fischer 344, females, in feed, site: adrenal gland, lesion: cortical adenoma, dosed 104 weeks, study length 105 weeks",1490 mg/kg/day
same,TD50,"rat, strain Fischer 344, females, in feed, site: any site (literature study), lesion: several types, types named in the paper, dosed 104 weeks, study length 105 weeks",93.8 mg/kg/day
same,TD50,"rat, strain Fischer 344, females, in feed, site: liver, lesion: hepatocellular adenoma + hepatocellular carcinoma + neoplastic nodule, dosed 104 weeks, study length 105 weeks",2180 mg/kg/day
same,TD50,"rat, strain Fischer 344, females, in feed, site: nasal cavity + urinary bladder, lesion: olfactory neuroblastoma + neoplasm, NOS + papillary carcinoma + squamous-cell carcinoma + transitional-cell carcinoma, dosed 104 weeks, study length 105 weeks",110 mg/kg/day
same,TD50,"rat, strain Fischer 344, females, in feed, site: nasal cavity, lesion: olfactory neuroblastoma, dosed 104 weeks, study length 105 weeks",1190 mg/kg/day
same,TD50,"rat, strain Fischer 344, females, in feed, site: urinary bladder, lesion: neoplasm, NOS + papillary carcinoma + squamous-cell carcinoma + transitional-cell carcinoma, dosed 104 weeks, study length 105 weeks",110 mg/kg/day
same,TD50,"rat, strain Fischer 344, females, in feed, site: uterus, lesion: endometrial stromal polyp, dosed 104 weeks, study length 105 weeks",913 mg/kg/day
same,TD50,"rat, strain Fischer 344, males, in feed, site: any site (literature study), lesion: several types, types named in the paper, dosed 104 weeks, study length 105 weeks",98 mg/kg/day
same,TD50,"rat, strain Fischer 344, males, in feed, site: brain + brain stem, lesion: glioma, NOS, dosed 104 weeks, study length 105 weeks",3510 mg/kg/day
same,TD50,"rat, strain Fischer 344, males, in feed, site: liver + nasal cavity + nasopharynx + urinary bladder, lesion: hepatocellular carcinoma + mixed hepato/cholangio carcinoma + neoplastic nodule + adenoma, NOS + carcinoma, NOS + neuroblastoma + ne, dosed 104 weeks, study length 105 weeks",76.3 mg/kg/day
same,TD50,"rat, strain Fischer 344, males, in feed, site: liver, lesion: hepatocellular adenoma + hepatocellular carcinoma + neoplastic nodule, dosed 104 weeks, study length 105 weeks",443 mg/kg/day
same,TD50,"rat, strain Fischer 344, males, in feed, site: liver, lesion: hepatocellular carcinoma + mixed hepato/cholangio carcinoma + neoplastic nodule, dosed 104 weeks, study length 105 weeks",406 mg/kg/day
same,TD50,"rat, strain Fischer 344, males, in feed, site: nasal cavity + nasopharynx, lesion: carcinoma, NOS + neoplasm, NOS, malignant + adenocarcinoma, NOS, dosed 104 weeks, study length 105 weeks",4620 mg/kg/day
same,TD50,"rat, strain Fischer 344, males, in feed, site: nasal cavity, lesion: adenoma, NOS + carcinoma, NOS + neuroblastoma + neoplasm, NOS, malignant + olfactory neuroblastoma, dosed 104 weeks, study length 105 weeks",397 mg/kg/day
same,TD50,"rat, strain Fischer 344, males, in feed, site: nasal cavity, lesion: neuroblastoma + olfactory neuroblastoma, dosed 104 weeks, study length 105 weeks",450 mg/kg/day
same,TD50,"rat, strain Fischer 344, males, in feed, site: testis, lesion: interstitial-cell tumor, dosed 104 weeks, study length 105 weeks",165 mg/kg/day
same,TD50,"rat, strain Fischer 344, males, in feed, site: urinary bladder, lesion: papillary carcinoma + squamous-cell carcinoma + transitional-cell carcinoma + transitional-cell papilloma + undifferentiated car, dosed 104 weeks, study length 105 weeks",88.4 mg/kg/day
NNC(=O)c1cccnc1,carcinogen call,"mouse, strain Swiss albino, females, in drinking water, site: liver, lesion: angioma, dosed 102 weeks, study length 102 weeks",negative (inactive)
same,carcinogen call,"mouse, strain Swiss albino, females, in drinking water, site: liver, lesion: angiosarcoma, dosed 102 weeks, study length 102 weeks",negative (inactive)
same,TD50,"mouse, strain Swiss albino, females, in drinking water, site: lung, lesion: adenocarcinoma, dosed 102 weeks, study length 102 weeks",511 mg/kg/day
same,TD50,"mouse, strain Swiss albino, females, in drinking water, site: lung, lesion: adenoma, dosed 102 weeks, study length 102 weeks",181 mg/kg/day
same,TD50,"mouse, strain Swiss albino, females, in drinking water, site: lung, lesion: several types, types named in the paper, dosed 102 weeks, study length 102 weeks",145 mg/kg/day
same,carcinogen call,"mouse, strain Swiss albino, males, in drinking water, site: liver, lesion: angioma, dosed 101 weeks, study length 101 weeks",negative (inactive)
same,carcinogen call,"mouse, strain Swiss albino, males, in drinking water, site: liver, lesion: angiosarcoma, dosed 101 weeks, study length 101 weeks",negative (inactive)
same,TD50,"mouse, strain Swiss albino, males, in drinking water, site: liver, lesion: hepatoma, dosed 101 weeks, study length 101 weeks",1410 mg/kg/day (inactive)
same,TD50,"mouse, strain Swiss albino, males, in drinking water, site: lung, lesion: adenoma, dosed 101 weeks, study length 101 weeks",428 mg/kg/day
same,TD50,"mouse, strain Swiss albino, males, in drinking water, site: lung, lesion: several types, types named in the paper, dosed 101 weeks, study length 101 weeks",528 mg/kg/day
CC(=O)C(N=Nc1ccc(Cl)cc1Cl)C(=O)Nc1ccc(-c2ccc(NC(=O)C(N=Nc3ccc(Cl)cc3Cl)C(C)=O)c(C)c2)cc1C (configuration not stated),TD50,"mouse, strain NMRI, both sexes, in feed, site: any site (literature study), lesion: one or several types, types not named, dosed 104 weeks, study length 104 weeks",11700 mg/kg/day (inactive)
same,TD50,"rat, strain Sprague-Dawley, both sexes, in feed, site: any site (literature study), lesion: one or several types, types not named, dosed 104 weeks, study length 104 weeks",13700 mg/kg/day (inactive)
Cc1cc(C)c(S(=O)(=O)O)cc1N=Nc1cc(S(=O)(=O)O)c2ccccc2c1O,TD50,"dog, strain Beagle, females, in feed, site: adrenal gland, lesion: medullary adenoma, dosed 365 weeks, study length 365 weeks",316 mg/kg/day
same,TD50,"dog, strain Beagle, females, in feed, site: any site (literature study), lesion: several types, types named in the paper, dosed 365 weeks, study length 365 weeks",670 mg/kg/day
same,TD50,"dog, strain Beagle, females, in feed, site: mammary gland, lesion: adenocarcinoma, dosed 365 weeks, study length 365 weeks",316 mg/kg/day (inactive)
same,carcinogen call,"mouse, strain C3HeB/Jax, both sexes, in feed, site: any site (literature study), lesion: several types, types named in the paper, dosed 104 weeks, study length 104 weeks",negative (inactive)
same,carcinogen call,"mouse, strain C3HeB/Jax, both sexes, in feed, site: liver, lesion: hepatoma, dosed 104 weeks, study length 104 weeks",negative (inactive)
same,TD50,"mouse, strain C57BL/He, both sexes, in feed, site: any site (literature study), lesion: several types, types named in the paper, dosed 104 weeks, study length 104 weeks",20300 mg/kg/day (inactive)
same,TD50,"mouse, strain C57BL/He, both sexes, in feed, site: liver, lesion: hepatoma, dosed 104 weeks, study length 104 weeks",57100 mg/kg/day (inactive)
same,TD50,"rat, strain Non-inbred, both sexes, in feed, site: any site (literature study), lesion: several types, types named in the paper, dosed 143 weeks, study length 143 weeks",12000 mg/kg/day
same,TD50,"rat, strain Non-inbred, both sexes, in feed, site: liver, lesion: hepatoma, dosed 143 weeks, study length 143 weeks",49500 mg/kg/day
same,TD50,"rat, strain Osborne-Mendel, both sexes, in feed, site: all sites, lesion: fibrosarcoma, dosed 104 weeks, study length 104 weeks",20300 mg/kg/day (inactive)
same,carcinogen call,"rat, strain Osborne-Mendel, both sexes, in feed, site: any site (literature study), lesion: several types, types named in the paper, dosed 104 weeks, study length 104 weeks",negative (inactive)
same,TD50,"rat, strain Osborne-Mendel, both sexes, in feed, site: liver, lesion: adenoma, dosed 104 weeks, study length 104 weeks",59800 mg/kg/day (inactive)
same,carcinogen call,"rat, strain Sprague-Dawley, both sexes, in feed, site: any site (literature study), lesion: several types, types named in the paper, dosed 104 weeks, study length 104 weeks",negative (inactive)
same,TD50,"rat, strain Wistar, both sexes, in feed, site: abdomen, lesion: malignant lymphoma, dosed 91 weeks, study length 91 weeks",6130 mg/kg/day
CC(C)=NO,TD50,"rat, strain MRC-Wistar, females, in drinking water, site: any site (literature study), lesion: several types, types named in the paper, dosed 78 weeks, study length 130 weeks",91.5 mg/kg/day
same,TD50,"rat, strain MRC-Wistar, females, in drinking water, site: liver, lesion: hemangioma, dosed 78 weeks, study length 130 weeks",408 mg/kg/day (inactive)
same,TD50,"rat, strain MRC-Wistar, females, in drinking water, site: liver, lesion: hepatocellular adenoma, dosed 78 weeks, study length 130 weeks",127 mg/kg/day (inactive)
same,TD50,"rat, strain MRC-Wistar, females, in drinking water, site: liver, lesion: several types, types named in the paper, dosed 78 weeks, study length 130 weeks",127 mg/kg/day (inactive)
same,TD50,"rat, strain MRC-Wistar, males, in drinking water, site: any site (literature study), lesion: several types, types named in the paper, dosed 78 weeks, study length 110 weeks",12.8 mg/kg/day
same,TD50,"rat, strain MRC-Wistar, males, in drinking water, site: liver, lesion: hemangioma, dosed 78 weeks, study length 110 weeks",136 mg/kg/day
same,TD50,"rat, strain MRC-Wistar, males, in drinking water, site: liver, lesion: hepatocellular adenoma, dosed 78 weeks, study length 110 weeks",12.1 mg/kg/day
same,TD50,"rat, strain MRC-Wistar, males, in drinking water, site: liver, lesion: several types, types named in the paper, dosed 78 weeks, study length 110 weeks",12.1 mg/kg/day (inactive)
ClCC1CO1 (configuration not stated),TD50,"mouse, strain Ha/ICR, females, i.p., site: lung, lesion: papillary tumor, dosed 64 weeks, study length 64 weeks",28.9 mg/kg/day
same,TD50,"rat, strain Sprague-Dawley, males, inhaled, site: nasal cavity, lesion: squamous-cell carcinoma, dosed 54 weeks, study length 136 weeks",421 mg/kg/day
same,TD50,"rat, strain Wistar, females, by gavage, site: forestomach, lesion: squamous-cell carcinoma, dosed 104 weeks, study length 104 weeks",2.55 mg/kg/day
same,carcinogen call,"rat, strain Wistar, females, by gavage, site: liver, lesion: neoplastic nodule, dosed 104 weeks, study length 104 weeks",negative (inactive)
same,TD50,"rat, strain Wistar, males, by gavage, site: any site (literature study), lesion: several types, types named in the paper, dosed 104 weeks, study length 104 weeks",4.83 mg/kg/day
same,TD50,"rat, strain Wistar, males, by gavage, site: forestomach, lesion: squamous-cell carcinoma, dosed 104 weeks, study length 104 weeks",3.53 mg/kg/day
same,carcinogen call,"rat, strain Wistar, males, by gavage, site: liver, lesion: hepatocellular carcinoma, dosed 104 weeks, study length 104 weeks",negative (inactive)
same,carcinogen call,"rat, strain Wistar, males, by gavage, site: liver, lesion: neoplastic nodule, dosed 104 weeks, study length 104 weeks",negative (inactive)
same,TD50,"rat, strain Wistar, males, by gavage, site: liver, lesion: one or several types, types not named, dosed 104 weeks, study length 104 weeks",218 mg/kg/day (inactive)
